{
  "source": "patent US6987127B2",
  "about": "“Regulation of NAD(P)H oxidase growth and transcription in melanoma cells” (Charlotte-Mecklenburg Hospital Authority, priority 2001, dated 2006)",
  "key": {"M1619 cells": {"system": "M1619 cells", "test": "Proliferation after transfection of p22phox or NOX4 sense/antisense oligonucleotides (MTT assay)", "assay_type": "cell-based, human", "conditions": "2 μg oligonucleotide, 6 hours transfection, 48 hours growth, P<0.01"}, "OCT-1": {"system": "OCT-1", "conditions": "M1619 cells, overnight, 10-20 μmoles/L"}, "NF-κB p65": {"system": "NF-κB p65", "conditions": "M1619 cells, 50 μmol/L overnight"}, "p65 component of NF-κB": {"system": "p65 component of NF-κB", "conditions": "M1619 cells, 50 μmol/L overnight"}, "NF-κB": {"system": "NF-κB", "conditions": "M1619 cells, 50 μmol/L overnight; P<0.001 by densitometry"}, "AP-1": {"system": "AP-1", "conditions": "M1619 cells, overnight, 10-20 μmoles/L"}, "[1]": {"system": "cyclic-AMP responsive element (CRE)", "conditions": "M1619 cells, overnight, 10, 15, 20 μmoles/L; P<0.001 vs untreated"}, "IκBα": {"system": "IκBα", "conditions": "M1619 cells, 25 μmoles/L overnight"}, "[2]": {"system": "M1619 malignant melanoma cells", "test": "Proliferation of cultured cells with oxidase inhibitors (MTT assay)", "assay_type": "cell-based, human", "conditions": "for Melanoma growth: M1619, data not shown"}, "[3]": {"system": "M1619 malignant melanoma cells", "conditions": "Brar and co-workers; cited from earlier work"}, "[4]": {"system": "H596 non-small-cell lung cancer cells", "conditions": "Brar et al. (2001); cited from earlier work"}},
  "data": [
    {"molecule": "NOX4 antisense oliogonucleotides: antisense 5′-AGCTCCTCCAGGACACAGCC-3′ based on NOX4 gene-specific sequence (listed as DNA, chemistry not given here)", "values": [
      {"measurement": "Subsequent growth compared with sense oligonucleotides", "setting": "M1619 cells", "value": "significantly reduced subsequent growth"}
    ]},
    {"molecule": "c1ccc2c(c1)[I+]c1ccccc1-2", "note": "[DPI, diphenylene iodonium]", "values": [
      {"measurement": "DNA binding to the OCT-1 oligonucleotide consensus sequence", "setting": "OCT-1", "value": "does not inhibit"},
      {"measurement": "Constitutive nuclear translocation of NF-κB (anti-p65 staining in nuclei)", "setting": "NF-κB p65", "value": "reduces constitutive nuclear translocation of NF-κB"},
      {"measurement": "Immunoreactive p65 in nuclear protein", "setting": "p65 component of NF-κB", "value": "reduces immunoreactive p65 in nuclear protein"},
      {"measurement": "Constitutive NF-κB DNA binding", "setting": "NF-κB", "value": "greatly reduced"},
      {"measurement": "DNA binding to the AP-1 oligonucleotide consensus sequence", "setting": "AP-1", "value": "does not inhibit"},
      {"measurement": "CRE DNA binding activity of nuclear protein", "setting": "[1]", "value": "inhibits CRE-binding activity in a dose-dependent manner"},
      {"measurement": "Phosphorylation of the NF-κB inhibitor IκBα (serine 32)", "setting": "IκBα", "value": "decreased phosphorylation"},
      {"measurement": "inhibition at 50 µM", "setting": "[2]; Homo sapiens, after 48 hours, highest dose (50 μmol/L), 10% FBS, P<0.001, read-out: Inhibition of M1619 malignant melanoma cell growth", "value": "86 ± 0.5", "unit": "%"}
    ]},
    {"molecule": "N=C(NCCC[C@H](N)C(=O)O)N[N+](=O)[O-]", "note": "[ω-nitro-L-arginine]", "values": [
      {"measurement": "Melanoma growth", "setting": "[2]; 100 μmol/L", "value": "unaffected"}
    ]},
    {"molecule": "p22^phox antisense oliogonucleotides: previously reported antisense 5′-GATCTGCCCCATGGTGAGGACC-3′ for p22phox mRNA (listed as DNA, chemistry not given here)", "values": [
      {"measurement": "Subsequent growth compared with sense oligonucleotides", "setting": "M1619 cells", "value": "significantly reduced subsequent growth"}
    ]},
    {"molecule": "Oc1ncnc2[nH]ncc12", "note": "[allopurinol]", "values": [
      {"measurement": "Melanoma growth", "setting": "[2]; 1 mmol/L", "value": "unaffected"}
    ]},
    {"molecule": "O=c1oc2ccccc2c(O)c1Cc1c(O)c2ccccc2oc1=O", "note": "[dicumarol]", "values": [
      {"measurement": "Cellular proliferation in M1619 malignant melanoma cells", "setting": "[3]", "value": "inhibition"},
      {"measurement": "Growth of H596 non-small-cell lung cancer cells", "setting": "[4]", "value": "inhibited growth"}
    ]}
  ]
}
